From ChEMBL document CHEMBL1201862, “PubChem BioAssay data set” (2004)
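Values below derive from 48-hour exposures of cells grown in 96-well plates, with endpoints linearly interpolated between the two concentrations bracketing the appropriate inhibition level. GI50 marks 50% less growth.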 Calls of active or inactive are those of the source. Cut-off read from the data, not from the text of the source: active = GI50 up to about 1.1 µM and inactive = higher.

Key:
Experiment in all cases: NCI-60 cell line screen, 48 h
DMS-273 = system: DMS-273
KM-20L2 = system: KM-20L2
DMS-114 = system: DMS-114
XF498 = system: XF498
SNB-78 = system: SNB-78
RXF 631 = system: RXF 631
HOP-18 = system: HOP-18

Row | SMILES | GI50 (DMS-273) | GI50 (KM-20L2) | GI50 (DMS-114) | GI50 (XF498) | GI50 (SNB-78) | GI50 (RXF 631) | GI50 (HOP-18)
1 | CN(C(=O)C12C3C4C1C1C4(C(=O)C45C6C7C4C4C5C6C74C)C3C12C)C(C)(C)C (stereo unspecified) | 53.6 µM (inactive) | 31.2 µM (inactive) | 39.8 µM (inactive) | 49 µM (inactive) | 78.3 µM (inactive) | 34.6 µM (inactive) | –
2 | OCC1OC(NO)C(O)C(O)C1O (stereo unspecified) | > 100 µM (inactive) | > 100 µM (inactive) | – | > 100 µM (inactive) | > 100 µM (inactive) | > 100 µM (inactive) | > 100 µM (inactive)
3 | C[N+](C)(C)CC(=O)N/N=C(/Cc1cc(=O)oc2cc(O)ccc12)C(=O)Nc1ccc(Cl)cc1 | – | > 100 µM (inactive) | > 100 µM (inactive) | – | – | > 100 µM (inactive) | –
4 | Cc1cc2c(c(C#N)c1C)NC(=O)C(CC(=O)O)C2=O (stereo unspecified) | > 100 µM (inactive) | > 100 µM (inactive) | > 100 µM (inactive) | > 100 µM (inactive) | > 100 µM (inactive) | > 100 µM (inactive) | > 100 µM (inactive)
5 | O=C(Cn1cc(I)c(C(=O)NCC(O)CO)n1)NCC(O)CO (stereo unspecified) | > 100 µM (inactive) | > 100 µM (inactive) | > 100 µM (inactive) | > 100 µM (inactive) | > 100 µM (inactive) | – | > 100 µM (inactive)
6 | CC(C)(C)c1cc(C(=O)O)c(C(c2ccccc2)c2ccccc2C(=O)O)c(C(=O)O)c1 (stereo unspecified) | > 100 µM (inactive) | > 100 µM (inactive) | > 100 µM (inactive) | > 100 µM (inactive) | > 100 µM (inactive) | – | > 100 µM (inactive)
7 | CCCCCCCCCCCCCP(=O)(OC)OC | 19.1 µM (inactive) | 26.8 µM (inactive) | 21.6 µM (inactive) | 17.9 µM (inactive) | 17.5 µM (inactive) | 17.7 µM (inactive) | 18.1 µM (inactive)
8 | CN/N=C(\C)c1c(O)cc(C)oc1=O | – | > 100 µM (inactive) | – | – | – | > 100 µM (inactive) | > 100 µM (inactive)
9 | CC1(C)O[C@@H](CC/C=C/CO)[C@H](CC/C=C/CO)O1 | > 100 µM (inactive) | > 100 µM (inactive) | > 100 µM (inactive) | > 100 µM (inactive) | > 100 µM (inactive) | – | > 100 µM (inactive)
10 | CCCCCCCCCCCCCC(=O)CC(=O)c1c(O)cccc1O | 22.1 µM (inactive) | 47.4 µM (inactive) | 21.5 µM (inactive) | 24.5 µM (inactive) | 32.3 µM (inactive) | – | 33.3 µM (inactive)
11 | CCOC(=O)c1cc(/C=C/C(C)=C/C(=O)OC)n(C)c1C | > 100 µM (inactive) | 74 µM (inactive) | – | 93.1 µM (inactive) | > 100 µM (inactive) | > 100 µM (inactive) | –
12 | O=C(O)CCN(CCCN(CCC(=O)O)CCC(=O)O)CCC(=O)O | > 100 µM (inactive) | > 100 µM (inactive) | > 100 µM (inactive) | > 100 µM (inactive) | – | > 100 µM (inactive) | > 100 µM (inactive)
13 | C[Si](C)(C)CN1C(=O)c2ccccc2C1(O)c1ccccc1 (stereo unspecified) | 56.6 µM (inactive) | > 100 µM (inactive) | 41.6 µM (inactive) | 73.8 µM (inactive) | > 83.9 µM (inactive) | 88.9 µM (inactive) | > 100 µM (inactive)
14 | CC(=O)C=C1Nc2ccccc2N1 | – | > 100 µM (inactive) | – | > 100 µM (inactive) | > 100 µM (inactive) | > 100 µM (inactive) | –
15 | CC(=O)c1ccc(NC(=O)COC(=O)c2cccc3c(=O)c4ccccc4[nH]c23)cc1 | – | > 100 µM (inactive) | 34.8 µM (inactive) | 23.1 µM (inactive) | 31.4 µM (inactive) | 20.6 µM (inactive) | > 100 µM (inactive)
16 | Cc1ccc2[nH]c(Sc3c([N+](=O)[O-])ncn3C)nc2c1 | 12.2 µM (inactive) | 25.6 µM (inactive) | 14.3 µM (inactive) | 0.586 µM (active) | 23.2 µM (inactive) | 17.2 µM (inactive) | 17.5 µM (inactive)
